From patent US10722491B2, “Phenol compound and combination of same with a benzodiazepine fused to 1,4-dihydropyridine for treating diseases of the central nervous and vascular systems” (UNIVERSIDAD DE LA HABANA, priority 2016, dated 2020)

Experiments:
PC12 cells = experiment: Cytoprotection against FeSO4/AA damage in PC12 cells (MTT); assay type: cell-based
Description: FIG. 8. Cytoprotective effect of KM-34 (0.001-10 μM) against damage induced by FeSO4 (5 mmol/L) and ascorbic acid (AA, 2 mmol/L) in cultures of PC12 cells. Viability 1% live cells) was determined by the MTT assay. Cells were seeded at a density of 5×10^5 cells/mL in a 96-well plate. The KM-34 was added simultaneously to the addition of the mixture of FeSO 4 and AA. The culture was then allowed to incubate at 37° C, […] and 5% CO 2 for 4 hours. After this time the supernatant was removed and the cells were incubated with 20 μg of MTT for a further 2 hours and the absorbance at 450 nm was measured with reference to 630 nm. The results are expressed as percentage of live cells relative to the control (undamaged cells, 100% live cells. *Represents significant differences (p<0.05) with respect to FeSO4/AA control.
The FeSO4/AA system is a strong catalyst for oxidative reactions in cells such as PC12 leading to their death (Hiroi et al., 2005; Núñez et al., 2011). […] At concentrations greater than 1 μM the % cell survival was greater than 90% (FIG. 8).

[1] = O2.- radical scavenging in the pyrogallol autoxidation test; assay type: biochemical
Description: FIG. 2. Activity of KM-34 (5-100 μM) as radical scavenger O2.− expressed as the percentage inhibition of autoxidation of pyrogallol. The same was obtained by varying the absorbance at 420 nm for 1 minute with respect to a blank uninhibited reaction: without KM-34; the slope was calculated for each concentration of the sample and for the target with a R2>0.98. The reaction takes place in […] Tris-HCl pH 8.2 buffer and was initiated by the addition of 0.134 mM Pirogalol*P<0.05 to the carrier (uninhibited reaction).
A non-enzymatic system generating these radicals was used to evaluate the O2.^− sequestration activity of KM-34, which catalyzes the autoxidation of pyrogallol, forming a colored compound that absorbs at 420 nm (Marklund, 1985).

[2] = KM-34 capacity to reduce DPPH radicals; assay type: biochemical
Description: FIG. 1. Percentage reduction of DPPH (100 μM) by KM-34 (5-400 μM) was determined by changing in the absorbance at 550 nm from a target containing only DPPH and vehicle (zero concentration of KM −34 or AA), after 30 minutes of reaction. Values are expressed as the mean ± SD (n=3). *P<0.05 with respect to the vehicle.
One of the most commonly used methods to estimate antioxidant activity is to evaluate the ability of different compounds to reduce DPPH radicals, which can be determined spectrophotometrically (Brand-Williams et al., 1995). […] Electron delocalization causes the intense violet coloration of the DPPH radical form when it is prepared in ethanol solution (Molyneux et al., 2004).
The IC 50 value obtained for KM was approximately 2.4 times lower than that obtained for ascorbic acid (AA) used as the reference compound.

## CC1(C)OC(=O)C(=Cc2ccc(O)c(O)c2)C(=O)O1 [KM-34, 5-[(3,4-dihydroxyphenyl)methylidene]-2,2-dimethyl-1,3-dioxane-4,6-dione]
PC12 cells; FeSO4 5 mmol/L and AA 2 mmol/L, 4 hours
  Concentration showing cytoprotective effects against FeSO4/AA: higher than 0.001 μM
PC12 cells; FeSO4/AA, concentrations between 0.01-10 μM
  Cells surviving oxidizing conditions: 90 out of 100 cells
PC12 cells; FeSO4/AA, concentrations greater than 1 μM
  % cell survival: greater than 90%
[1]
  Concentration significantly (p<0.05) inhibiting formation of oxidized pyrogallol vs vehicle: greater than 5 μM
[1]; Tris-HCl pH 8.2, read-out: IC50, inhibition of autoxidation of pyrogallol (O2.- scavenging)
  IC50: 11 µM
[1]; from 50 μM
  Inhibition of oxidation of pyrogallol: totally inhibited
[2]; DPPH 100 μM, 30 minutes of reaction, read-out: IC50, reduction of DPPH radicals
  IC50: 16.3 µM
[2]; DPPH, AA as reference compound
  IC50 of KM relative to ascorbic acid (times lower): approximately 2.4 times
[2]; after 30 minutes of reaction
  Concentration giving significant (p<0.05) inhibition of the DPPH radical vs vehicle: higher than 5 μM
[2]; at concentrations above 50 μM
  DPPH reduction response: reached its maximum response
